This is an account of results in patent publication US10160747B2, “Compounds and methods for kinase modulation, and indications therefor” (Plexxikon Inc., priority 2016, dated 2018).

Each structure is given as a SMILES string. Where a chain is given by its changes, count along the chain named.

One experiment has as its target T1, BA/F3-FLT3-ITD + D835Y (Homo sapiens, UniProt P36888, D835Y, cells depend on it, form not given).
T1 sequence (P36888 with tags, fused parts or gaps INS600HVDFREYEYD/D835Y): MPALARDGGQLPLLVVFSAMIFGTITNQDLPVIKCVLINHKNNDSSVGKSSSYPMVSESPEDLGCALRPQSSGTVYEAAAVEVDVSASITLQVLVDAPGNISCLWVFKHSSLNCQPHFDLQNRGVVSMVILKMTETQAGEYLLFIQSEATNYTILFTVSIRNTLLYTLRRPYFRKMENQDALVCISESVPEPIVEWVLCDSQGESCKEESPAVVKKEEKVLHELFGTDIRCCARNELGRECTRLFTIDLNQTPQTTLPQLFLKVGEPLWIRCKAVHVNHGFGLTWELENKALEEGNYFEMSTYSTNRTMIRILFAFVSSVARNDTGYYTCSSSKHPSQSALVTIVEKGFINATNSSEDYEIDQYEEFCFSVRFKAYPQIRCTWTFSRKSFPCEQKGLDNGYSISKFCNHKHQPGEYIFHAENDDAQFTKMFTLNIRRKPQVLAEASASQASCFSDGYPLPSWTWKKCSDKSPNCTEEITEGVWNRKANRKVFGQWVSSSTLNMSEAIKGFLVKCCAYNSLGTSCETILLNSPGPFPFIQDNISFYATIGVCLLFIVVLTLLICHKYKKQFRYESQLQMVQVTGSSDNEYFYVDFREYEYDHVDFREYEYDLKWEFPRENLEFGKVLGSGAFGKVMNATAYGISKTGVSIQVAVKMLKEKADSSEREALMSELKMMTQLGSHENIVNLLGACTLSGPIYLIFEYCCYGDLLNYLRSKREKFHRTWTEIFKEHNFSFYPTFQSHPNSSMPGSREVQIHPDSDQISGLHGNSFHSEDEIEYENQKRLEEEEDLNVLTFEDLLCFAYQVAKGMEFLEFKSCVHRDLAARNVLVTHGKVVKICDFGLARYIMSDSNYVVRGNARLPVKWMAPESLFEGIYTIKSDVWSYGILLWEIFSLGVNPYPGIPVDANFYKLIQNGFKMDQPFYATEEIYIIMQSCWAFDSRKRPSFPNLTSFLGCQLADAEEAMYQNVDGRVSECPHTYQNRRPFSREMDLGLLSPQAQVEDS
As to the kind of experiment: Engineered BA/F3 cell growth assay, FLT3 ITD/D835Y. The experiment is classed as cell-based, murine. Conditions: three day growth assay in the absence of IL3; read-out: BaF3_FLT3_ITD/D835Y. Summed up:
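Murine Ba/F3 cells transfected with full-length FLT3 ITD/D835Y, grown without IL-3 so growth depends on FLT3. Seeded at 1×10^4 cells/well, 8-point 1:3 series to 1 μM top (0.2% DMSO), 3 days at 37 °C. CellTiter-Glo luminescence (ATP) versus concentration gave IC50.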

The next experiment concerns the target T2, BaF3_FLT3_ITD/F691L (Homo sapiens, UniProt P36888, F691L, cells depend on it, form not given).
T2 sequence (P36888 with tags, fused parts or gaps INS600HVDFREYEYD/F691L): T1 sequence (P36888 with tags, fused parts or gaps INS600HVDFREYEYD/D835Y) with F701L, Y845D
The experiment is described as follows: Engineered BaF3 cell growth assay, FLT3 ITD/F691L. The experiment is classed as cell-based, murine. The conditions noted are these: three day growth assay in the absence of IL3. From the text: The FLT3 inhibitors may be assessed using the MOLM-14, Acute Myeloid Leukemia cell line that endogenously expresses FLT3 ITD or derivatives of the human FLT3 AML cell line which acquired the D835Y (activation loop) of F691L (gatekeeper) mutation after selection in escalating doses of the FLT3 Inhibitor AC220. FLT3 inhibitors may also be assessed using cells that are engineered to express mutant FLT3. For engineered cells, murine Ba/F3 cells were transfected with full-length FLT3 ITD/D835Y mutations. The parental BA/F3 cells are dependent upon Interleukin-3 (IL-3) for survival, and introduction of the FLT3 constructs rendered these cells dependent upon FLT3 kinase activity when cultured in the absences of IL-3. Engineered BA/F3 cell growth assays can be performed in either the […] of IL-3, to assess the compound inhibition of FLT3 or to detect the presence of off-target activity, respectively. Inhibitors of FLT3 kinase activity reduce or eliminate the FLT3 oncogenic signaling, resulting in reduced cell proliferation. This inhibition is measured as a function of compound concentration to assess IC50 values.
Cells were seeded at 1×10^4 cells per well of a 96 well cell culture plate in 50 μl of cell culture medium. Compounds were dissolved in DMSO, typically at a concentration of 0.5 mM and were serially diluted 1:3 for a total of eight points and added to the cells to final concentrations of […], 0.0041, 0.0014 and 0.00046 μM in 100 μl cell culture medium (final concentration 0.2% DMSO). […] The cells were incubated at 37° C., 5% CO2 for three days. CellTiter-Glo Buffer (Promega Cell Viability Assay catalog #G7573) and substrate were equilibrated to room temperature, and enzyme/substrate Recombinant Firefly Luciferase/Beetle Luciferin was reconstituted. […] The plates were read on a Tecan M1000 using Luminescence protocol modified to read 0.1 s per well. The luminescence reading assesses the ATP content, which correlates directly with cell number such that the reading as a function of compound concentration was used to determine the IC50 value. […]

A further experiment has as its target T3, BaF3-FLT3-ITD-F691L (Homo sapiens, UniProt P36888, F691L, cells depend on it, form not given).
T3 sequence (P36888 with tags, fused parts or gaps INS600HVDFREYEYD/F691L): T1 sequence (P36888 with tags, fused parts or gaps INS600HVDFREYEYD/D835Y) with F701L, Y845D
The experiment is described as follows: Cell Assay CS0047: BaF3-FLT3-ITD-F691L CTB. Conditions: three day growth assay in the absence of IL3; read-out: Cell Assay: CS0047: BaF3-FLT3-ITD-F691L CTB:IC50. The experiment is classed as cell-based, murine. From the text:
(§1) The BaF3 assays as developed used to generate the data in Tables 7 and 8 are identical and differ only in minor details in regards to vector design, not biological function. Both introduce the FLT3 gene with MV4-11 based ITD duplications and resistance mutations from an exogenous promoter (MSCV and CMV respectively) in the exact same cell line.
(§2) As a result of the expressed FLT3 protein, the IL3 factor dependent BaF3 cell clones become IL3-factor independent.
(§3) The compounds in Tables 7 and 8 were tested in an identical fashion by incubating such clones in with increasing concentrations. Inhibition of the FLT3 activity by an inhibitor results in factor dependency, which in the absence of IL3 results in cell death in the three day growth assays.

For another experiment, the target named is T4, BaF3-FLT3-ITD-D835V (Homo sapiens, UniProt P36888, D835V, cells depend on it, form not given).
T4 sequence (P36888 with tags, fused parts or gaps INS600HVDFREYEYD/D835V): T1 sequence (P36888 with tags, fused parts or gaps INS600HVDFREYEYD/D835Y) with Y845V
The experiment is described as follows: Cell Assay CS0048: BaF3-FLT3-ITD-D835V CTB. The experiment is classed as cell-based, murine. The conditions noted are these: three day growth assay in the absence of IL3; read-out: Cell Assay: CS0048: BaF3-FLT3-ITD-D835V CTB:IC50.
Description: as §1, §2, §3

For experiment [1], the system named is leukemia cell that express either wild type FLT3 or FLT3-ITD mutations. Conditions: cells expressing wild type FLT3 or FLT3-ITD mutations; cited from earlier work.
Experiment [2] has as its system quizartinib resistance-causing mutants. The conditions noted are these: FLT3-ITD KD mutants, in addition to other mutant isoforms; cited from earlier work.

`Cn1cc(Nc2ncc(-c3ccc(CC(=O)Nc4cccc(C(F)(F)F)c4)cc3)cn2)cn1` [drawing 326]: the GI50 at BA/F3-FLT3-ITD + D835Y amounted to 0.000462 µM; on BaF3_FLT3_ITD/F691L it was 0.00154 µM.
Consider `CC(C)(c1cc(NC(=O)Cc2ccc(-c3ccc(NCCN4CCOCC4)nc3)cc2)no1)C(F)(F)F`, for which the GI50 was found to be 0.0739 µM at BaF3-FLT3-ITD-F691L and 0.145 µM at BaF3-FLT3-ITD-D835V.
On to `C=CCNC1=C2C[C@@H](C)C[C@H](OC)[C@H](O)[C@@H](C)/C=C(\C)[C@H](OC(N)=O)[C@@H](OC)/C=C\C=C(/C)C(=O)NC(=CC1=O)C2=O` [17″AAG, 17AAG], for which the “growth of leukemia cells” value in experiment [1] is recorded as “inhibited”.
In the case of `CCNc1ccc(-c2ccc(CC(=O)Nc3cc(C(C)(C)C)on3)cc2)cn1`, the GI50 was found to be 0.0454 µM on BaF3-FLT3-ITD-F691L and 0.0942 µM on BaF3-FLT3-ITD-D835V.
Consider `CNc1ccc(-c2ccc(CC(=O)Nc3cc(C(C)(C)C)on3)cc2)cn1`, for which the GI50 was determined as 0.0432 µM at BaF3-FLT3-ITD-F691L and 0.092 µM at BaF3-FLT3-ITD-D835V.
In the case of `CNC(=O)c1cc(Oc2ccc(NC(=O)Nc3ccc(Cl)c(C(F)(F)F)c3)cc2)ccn1` [sorafenib], in experiment [2], the “activity against identified quizartinib resistance-causing mutants” value is “ineffective”.
In the case of `CC(C)(C)c1cc(NC(=O)Nc2ccc(-c3cnc(NC4CC4)nc3)cn2)no1`, the GI50 at BaF3-FLT3-ITD-F691L came to 0.0778 µM; on BaF3-FLT3-ITD-D835V it was 0.585 µM.
For `CC(C)(C)c1cc(NC(=O)Nc2ccc(-c3cnc(NC4CCOCC4)nc3)cn2)no1`, the GI50 turned out to be 0.11 µM at BaF3-FLT3-ITD-F691L and 0.673 µM on BaF3-FLT3-ITD-D835V.
As to `Cn1cc(Nc2ncc(-c3ccc(CC(=O)Nc4ccc(C(C)(C)C)nc4)cc3)cn2)cn1` [drawing 327], the GI50 turned out to be 0.000444 µM at BA/F3-FLT3-ITD + D835Y and 0.000434 µM on BaF3_FLT3_ITD/F691L.
For `Cn1cc(Nc2ncc(-c3ccc(CC(=O)Nc4ccnc(C(F)(F)F)c4)cc3)cn2)cn1` [drawing 325], the values for the GI50 on BA/F3-FLT3-ITD + D835Y and at BaF3_FLT3_ITD/F691L were 0.000108 µM and 0.000313 µM, respectively.
